Reference: BigSolDB 2.1

Cn1c(=O)cc(N2CCC[C@@H](N)C2)n(Cc2ccccc2C#N)c1=O.O=C(O)c1ccccc1
solubility (mole fraction)
Settings	278.15 K	283.15 K	288.15 K	293.15 K	298.15 K	303.15 K	308.15 K	313.15 K	318.15 K
in DMF	0.00568	0.00686	0.00824	0.00984	0.0117	0.0138	0.0162	0.019	0.0222
in acetone	0.00259	0.00293	0.00331	0.00373	0.00419	0.0047	0.00525	0.00587	0.00654
in acetonitrile	0.000102	0.000145	0.000175	0.000228	0.000292	0.000368	0.000475	0.000583	0.000725
in ethanol	0.000355	0.000447	0.000554	0.000682	0.000822	0.00102	0.00122	0.00147	0.00176
in isopropanol	1.9e-05	3e-05	4.2e-05	6.3e-05	8.8e-05	0.000127	0.000175	0.000244	0.000334
in methanol	0.00239	0.00269	0.00302	0.00339	0.00379	0.00423	0.00472	0.00525	0.00583
in n-propanol	6.1e-05	8.2e-05	0.000113	0.000156	0.000209	0.000278	0.000367	0.000477	0.000621
in water	0.000838	0.000915	0.000999	0.00109	0.00119	0.00129	0.0014	0.00153	0.00166
